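Values below derive from 48-hour exposures of cells grown in 96-well plates, with endpoints linearly interpolated between the two concentrations bracketing the appropriate inhibition level. TGI: total growth inhibition.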
Experiments:
Test in all cases: growth of human tumour cells (NCI), 48 h
786-0 renal = test system: 786-0 renal
A498 renal = test system: A498 renal
A549 NSCLC = test system: A549 NSCLC
ACHN renal = test system: ACHN renal
BT-549 breast = test system: BT-549 breast
COLO 205 colon = test system: COLO 205 colon
DU-145 prostate = test system: DU-145 prostate
EKVX NSCLC = test system: EKVX NSCLC
HCC-2998 colon = test system: HCC-2998 colon
HCT-116 colon = test system: HCT-116 colon
HCT-15 colon = test system: HCT-15 colon
HL-60(TB) leukemia = test system: HL-60(TB) leukemia
HOP-62 NSCLC = test system: HOP-62 NSCLC
HOP-92 NSCLC = test system: HOP-92 NSCLC
HS 578T breast = test system: HS 578T breast
HT29 colon = test system: HT29 colon
IGROV1 ovarian = test system: IGROV1 ovarian
K-562 leukemia = test system: K-562 leukemia
KM12 colon = test system: KM12 colon
M14 melanoma = test system: M14 melanoma
MALME-3M melanoma = test system: MALME-3M melanoma
MCF7 breast = test system: MCF7 breast
MDA-MB-231 breast = test system: MDA-MB-231 breast
MDA-MB-435 = test system: MDA-MB-435
MDA-N = test system: MDA-N
MOLT-4 leukemia = test system: MOLT-4 leukemia
NCI-H226 lung = test system: NCI-H226 lung
NCI-H23 lung = test system: NCI-H23 lung
NCI-H460 lung = test system: NCI-H460 lung
NCI-H522 lung = test system: NCI-H522 lung
NCI/ADR-RES ovarian = test system: NCI/ADR-RES ovarian
OVCAR-3 ovarian = test system: OVCAR-3 ovarian
OVCAR-4 ovarian = test system: OVCAR-4 ovarian
OVCAR-5 ovarian = test system: OVCAR-5 ovarian
OVCAR-8 ovarian = test system: OVCAR-8 ovarian
PC-3 prostate = test system: PC-3 prostate
RPMI-8226 leukemia = test system: RPMI-8226 leukemia
RXF 393 renal = test system: RXF 393 renal
SF-268 CNS = test system: SF-268 CNS
SF-295 CNS = test system: SF-295 CNS
SF-539 CNS = test system: SF-539 CNS
SK-MEL-2 melanoma = test system: SK-MEL-2 melanoma
SK-MEL-28 melanoma = test system: SK-MEL-28 melanoma
SK-MEL-5 melanoma = test system: SK-MEL-5 melanoma
SK-OV-3 ovarian = test system: SK-OV-3 ovarian
SN12C renal = test system: SN12C renal
SNB-19 CNS = test system: SNB-19 CNS
SNB-75 CNS = test system: SNB-75 CNS
SR leukemia = test system: SR leukemia
SW-620 colon = test system: SW-620 colon
T-47D breast = test system: T-47D breast
TK-10 renal = test system: TK-10 renal
U251 CNS = test system: U251 CNS
UACC-257 melanoma = test system: UACC-257 melanoma
UACC-62 melanoma = test system: UACC-62 melanoma
UO-31 renal = test system: UO-31 renal
CAKI-1 renal = test system: CAKI-1 renal
LOX IMVI melanoma = test system: LOX IMVI melanoma
CCRF-CEM leukemia = test system: CCRF-CEM leukemia

O=C1C(Cl)C(c2cc3cc(Br)ccc3nc2Cl)N1c1ccc(F)c(Cl)c1 (configuration not stated)
TGI (786-0 renal): 2.25 µM | TGI (A498 renal): 15.1 µM | TGI (A549 NSCLC): 43.5 µM | TGI (ACHN renal): 24.2 µM | TGI (BT-549 breast): 25.9 µM | TGI (COLO 205 colon): 22.5 µM | TGI (DU-145 prostate): 22.1 µM | TGI (EKVX NSCLC): 3.62 µM | TGI (HCC-2998 colon): 21.7 µM | TGI (HCT-116 colon): 18.9 µM | TGI (HCT-15 colon): 27.6 µM | TGI (HL-60(TB) leukemia): 18.6 µM | TGI (HOP-62 NSCLC): 6.39 µM | TGI (HOP-92 NSCLC): 2.72 µM | TGI (HS 578T breast): 75 µM | TGI (HT29 colon): 26.5 µM | TGI (IGROV1 ovarian): 2.14 µM | TGI (K-562 leukemia): 17 µM | TGI (KM12 colon): 7.77 µM | TGI (M14 melanoma): 21.8 µM | TGI (MALME-3M melanoma): 22.8 µM | TGI (MCF7 breast): 20.1 µM | TGI (MDA-MB-231 breast): 24.8 µM | TGI (MDA-MB-435): 17.7 µM | TGI (MDA-N): 22.3 µM | TGI (MOLT-4 leukemia): 4.74 µM | TGI (NCI-H226 lung): 40.2 µM | TGI (NCI-H23 lung): 19 µM | TGI (NCI-H460 lung): 24.4 µM | TGI (NCI-H522 lung): 0.719 µM | TGI (NCI/ADR-RES ovarian): 29.8 µM | TGI (OVCAR-3 ovarian): 12.8 µM | TGI (OVCAR-4 ovarian): 4.96 µM | TGI (OVCAR-5 ovarian): 24.8 µM | TGI (OVCAR-8 ovarian): 54 µM | TGI (PC-3 prostate): 34.2 µM | TGI (RPMI-8226 leukemia): 5.23 µM | TGI (RXF 393 renal): 17.3 µM | TGI (SF-268 CNS): 14.2 µM | TGI (SF-295 CNS): 23.4 µM | TGI (SF-539 CNS): 3.66 µM | TGI (SK-MEL-2 melanoma): 23.5 µM | TGI (SK-MEL-28 melanoma): 34.5 µM | TGI (SK-MEL-5 melanoma): 19.8 µM | TGI (SK-OV-3 ovarian): 26.9 µM | TGI (SN12C renal): 20.5 µM | TGI (SNB-19 CNS): 23.1 µM | TGI (SNB-75 CNS): 21.4 µM | TGI (SR leukemia): 2.61 µM | TGI (SW-620 colon): 33 µM | TGI (T-47D breast): 27.4 µM | TGI (TK-10 renal): 17 µM | TGI (U251 CNS): 12.5 µM | TGI (UACC-257 melanoma): 25.7 µM | TGI (UACC-62 melanoma): 21.2 µM | TGI (UO-31 renal): 0.29 µM

O=C(CSc1nc2ccccc2c2ccccc12)c1ccccc1
TGI (786-0 renal): > 100 µM | TGI (A498 renal): > 100 µM | TGI (A549 NSCLC): > 100 µM | TGI (ACHN renal): > 100 µM | TGI (BT-549 breast): > 100 µM | TGI (CAKI-1 renal): > 100 µM | TGI (COLO 205 colon): > 100 µM | TGI (DU-145 prostate): > 100 µM | TGI (EKVX NSCLC): > 100 µM | TGI (HCT-116 colon): > 100 µM | TGI (HCT-15 colon): > 100 µM | TGI (HL-60(TB) leukemia): > 100 µM | TGI (HOP-62 NSCLC): > 100 µM | TGI (HOP-92 NSCLC): > 100 µM | TGI (HS 578T breast): 0.0967 µM | TGI (HT29 colon): > 100 µM | TGI (IGROV1 ovarian): > 100 µM | TGI (K-562 leukemia): > 100 µM | TGI (KM12 colon): > 100 µM | TGI (LOX IMVI melanoma): > 100 µM | TGI (M14 melanoma): > 100 µM | TGI (MALME-3M melanoma): > 100 µM | TGI (MCF7 breast): > 100 µM | TGI (MDA-MB-231 breast): > 100 µM | TGI (MDA-MB-435): > 100 µM | TGI (MDA-N): > 100 µM | TGI (MOLT-4 leukemia): > 100 µM | TGI (NCI-H226 lung): > 100 µM | TGI (NCI-H23 lung): > 100 µM | TGI (NCI-H460 lung): > 100 µM | TGI (NCI-H522 lung): > 100 µM | TGI (NCI/ADR-RES ovarian): > 100 µM | TGI (OVCAR-3 ovarian): > 100 µM | TGI (OVCAR-4 ovarian): > 100 µM | TGI (OVCAR-5 ovarian): > 100 µM | TGI (OVCAR-8 ovarian): > 100 µM | TGI (PC-3 prostate): > 100 µM | TGI (RPMI-8226 leukemia): > 100 µM | TGI (RXF 393 renal): > 100 µM | TGI (SF-268 CNS): > 100 µM | TGI (SF-295 CNS): > 100 µM | TGI (SF-539 CNS): > 100 µM | TGI (SK-MEL-2 melanoma): > 100 µM | TGI (SK-MEL-28 melanoma): > 100 µM | TGI (SK-MEL-5 melanoma): > 100 µM | TGI (SN12C renal): > 100 µM | TGI (SNB-19 CNS): > 100 µM | TGI (SNB-75 CNS): 57.9 µM | TGI (SR leukemia): > 100 µM | TGI (SW-620 colon): > 100 µM | TGI (T-47D breast): > 100 µM | TGI (TK-10 renal): > 100 µM | TGI (U251 CNS): > 100 µM | TGI (UACC-257 melanoma): > 100 µM | TGI (UACC-62 melanoma): > 100 µM | TGI (UO-31 renal): > 100 µM

C[N+](C)(C)CCN(Cc1cccs1)c1ccccn1
TGI (786-0 renal): > 100 µM | TGI (A498 renal): > 100 µM | TGI (A549 NSCLC): > 100 µM | TGI (ACHN renal): > 100 µM | TGI (BT-549 breast): > 100 µM | TGI (CAKI-1 renal): > 100 µM | TGI (CCRF-CEM leukemia): > 100 µM | TGI (COLO 205 colon): > 100 µM | TGI (DU-145 prostate): > 100 µM | TGI (HCC-2998 colon): > 100 µM | TGI (HCT-116 colon): > 100 µM | TGI (HCT-15 colon): > 100 µM | TGI (HL-60(TB) leukemia): > 100 µM | TGI (HOP-62 NSCLC): > 100 µM | TGI (HOP-92 NSCLC): 73.9 µM | TGI (HS 578T breast): > 100 µM | TGI (IGROV1 ovarian): > 100 µM | TGI (K-562 leukemia): > 100 µM | TGI (KM12 colon): > 100 µM | TGI (LOX IMVI melanoma): > 100 µM | TGI (M14 melanoma): > 100 µM | TGI (MALME-3M melanoma): > 100 µM | TGI (MCF7 breast): > 100 µM | TGI (MDA-MB-231 breast): > 100 µM | TGI (MDA-MB-435): > 100 µM | TGI (MDA-N): > 100 µM | TGI (NCI-H226 lung): > 100 µM | TGI (NCI-H23 lung): > 100 µM | TGI (NCI-H460 lung): > 100 µM | TGI (NCI-H522 lung): > 100 µM | TGI (NCI/ADR-RES ovarian): > 100 µM | TGI (OVCAR-3 ovarian): > 100 µM | TGI (OVCAR-4 ovarian): > 100 µM | TGI (OVCAR-8 ovarian): > 100 µM | TGI (PC-3 prostate): > 100 µM | TGI (RPMI-8226 leukemia): > 100 µM | TGI (RXF 393 renal): > 100 µM | TGI (SF-268 CNS): > 100 µM | TGI (SF-295 CNS): > 100 µM | TGI (SF-539 CNS): > 100 µM | TGI (SK-MEL-2 melanoma): > 100 µM | TGI (SK-MEL-28 melanoma): > 100 µM | TGI (SK-MEL-5 melanoma): > 100 µM | TGI (SK-OV-3 ovarian): > 100 µM | TGI (SN12C renal): > 100 µM | TGI (SNB-19 CNS): > 100 µM | TGI (SNB-75 CNS): > 100 µM | TGI (SR leukemia): > 100 µM | TGI (SW-620 colon): > 100 µM | TGI (T-47D breast): > 100 µM | TGI (TK-10 renal): > 100 µM | TGI (U251 CNS): > 100 µM | TGI (UACC-257 melanoma): > 100 µM | TGI (UACC-62 melanoma): > 100 µM | TGI (UO-31 renal): > 100 µM
